The values that follow come from patent US8563723B2, “Arylsulfonyl pyrazoline carboxamidine derivatives as 5-HT6 antagonists” (Abbott Healthcare Products, B.V., priority 2008, dated 2013).

Experiment [1] addresses T1, 5-HT6 receptor (Homo sapiens, UniProt P50406). Put plainly: In vitro affinity for human 5-HT6 receptors ([3H]-LSD binding, CHO cell membranes). The arrangement: host or cells: CHO/Gα16/mtAEQ/h5HT6-A1 cells. Conditions: [3H]-LSD, membranes of CHO cells with human 5-HT6; main compound table; read-out: 5-HT6 pKi (converted).
Description: In Vitro Affinity for Human 5-HT6 Receptors
Affinity for human 5-HT6 receptors was measured in a membrane preparation of CHO-cells transfected with human 5-HT6 receptors by binding studies using [^3H]-N-Methyl-Lysergic acid diethylamide ([^3H]-LSD) as ligand. […] CHO/Gα16/mtAEQ/h5HT6-A1 cells were grown in T-flasks in CHO-S-SFM II medium (Gibco BRL), supplemented with 1% dialysed FCS, 2 mM L-glutamine, Geneticin 500 μg/ml and Zeocin 200 μg/ml. […] After thawing cells were centrifuged during 3 minutes at 1500 g at 4° C. […] The assay was established so as to achieve steady state conditions and to optimize specific binding. For the 5-HT6 receptor, membranes from 5.10^5 cells were incubated with 5.0 nM [^3H]-LSD at 37° C. for 30 minutes. Nonspecific binding was determined using 10^−5 M serotonin. Assays were terminated by vacuum filtration through glass fibre filters (GF/B) which had been pretreated with 0.5% polyethyleneimine. Total and bound radioactivity was determined by liquid scintillation counting. […] Compounds were tested at a 4 log concentration range; all determinations were performed as triplicates. IC50 values were determined by non-linear regression analysis using Hill equation curve fitting. The inhibition constants (Ki-values) were calculated from the Cheng-Preushoff equation: Ki=IC50:(1+L/Kd) wherein L represents the concentration [^3H]-LSD in the assay, and Kd its affinity for the receptor. Results are expressed as pKi-values, means±SD of at least three separate experiments.
Experiment [2] addresses T1, 5-HT6 receptor. The experiment can be described thus: In vitro functional activity ((ant)agonism) on human 5-HT6 receptors, CHO-human-5HT6-Aequorin assay. Conditions: antagonism of 10^-8 M α-methylserotonin induced luminescence, main compound table; for Kb: read-out: 5-HT6 pA2 (converted). The arrangement: host or cells: CHO AequoScreen recombinant cell line (expresses mitochondrial targeted apo-Aequorin). Format: cell-based.
Description: Human-5-HT6-Aequorin cells express mitochondrial targeted apo-Aequorin. Cells have to be loaded with coelanterazine, in order to reconstitute active Aequorin. […] This luminescent response is dependent on the agonist concentration. Luminescence is measured using the MicroBeta Jet (Perkin Elmer). Agonistic effects of compounds are expressed as pEC50. […] Compounds were tested at a 5 log concentration range, and 3 independent experiments were performed in duplicate.

T1 sequence (P50406 whole entry): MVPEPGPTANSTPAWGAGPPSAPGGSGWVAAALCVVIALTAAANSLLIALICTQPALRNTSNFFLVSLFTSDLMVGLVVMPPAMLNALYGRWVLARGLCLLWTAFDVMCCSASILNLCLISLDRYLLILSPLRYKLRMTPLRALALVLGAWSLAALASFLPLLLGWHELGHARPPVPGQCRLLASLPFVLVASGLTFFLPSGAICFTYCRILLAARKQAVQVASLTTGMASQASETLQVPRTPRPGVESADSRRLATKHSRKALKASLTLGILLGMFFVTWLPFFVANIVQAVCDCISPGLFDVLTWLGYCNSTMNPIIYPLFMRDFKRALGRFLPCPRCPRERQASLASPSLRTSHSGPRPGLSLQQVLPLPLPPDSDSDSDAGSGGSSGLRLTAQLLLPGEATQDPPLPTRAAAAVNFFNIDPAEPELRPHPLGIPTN

For `CCN/C(=N\S(=O)(=O)c1ccc(N)cc1)N1CC(CC)C=N1` (single isomer, unassigned) [Compound 1], the Ki on 5-HT6 receptor [1] is 3.16 nM. The Kb on 5-HT6 receptor [2] is 2 nM. On to `CCN/C(=N\S(=O)(=O)c1ccc(N)cc1)N1CC(CC)C=N1` (single isomer, unassigned) [Compound 2], for which, on 5-HT6 receptor [1], the Ki was 10 nM.

On to `CCN/C(=N\S(=O)(=O)c1ccc(N)c(Cl)c1)N1CC(CC)C=N1` (single isomer, unassigned) [Compound 11], for which, at 5-HT6 receptor [1], the Ki was 1 nM. At 5-HT6 receptor [2], the Kb is 0.501 nM. `CCN/C(=N\S(=O)(=O)c1ccc(N)c(Cl)c1)N1CC(CC)C=N1` (single isomer, unassigned) [Compound 12]: the Ki at 5-HT6 receptor [1] was 1.58 nM. Moreover, the Kb on 5-HT6 receptor [2] is 1 nM. The corresponding values for `CCN/C(=N\S(=O)(=O)c1ccc(O)cc1)N1CC(CC)C=N1` (single isomer, unassigned) [Compound 20] are 2 nM and 1 nM. As for `CCN/C(=N\S(=O)(=O)c1ccc(O)cc1)N1CC(CC)C=N1` (single isomer, unassigned) [Compound 21], the Ki on 5-HT6 receptor [1] was 10 nM. For the same compound, the Kb at 5-HT6 receptor [2] is 6.31 nM.

Regarding `N/C(=N\S(=O)(=O)c1ccc(N)cc1)N1CC2(C=N1)CCCC2` [Compound 5], the Ki at 5-HT6 receptor [1] was 100 nM. The Kb on 5-HT6 receptor [2] was 79.4 nM. Turning to `CCN/C(=N\S(=O)(=O)c1ccc(N)cc1)N1CC2(C=N1)CCOCC2` [Compound 7], on 5-HT6 receptor [1], the Ki is 63.1 nM. Moreover, the Kb on 5-HT6 receptor [2] was 25.1 nM. The corresponding values for `CN/C(=N\S(=O)(=O)c1ccc(N)cc1)N1CC2(C=N1)CCOCC2` [Compound 8] are 200 nM and 158 nM.

With `N/C(=N\S(=O)(=O)c1ccc(N)cc1)N1CC2(C=N1)CCOCC2` [Compound 9], the Ki at 5-HT6 receptor [1] is 251 nM. In addition, on 5-HT6 receptor [2], the Kb is 200 nM. Regarding `CCN/C(=N\S(=O)(=O)c1ccc2[nH]ccc2c1)N1CC(CC)C=N1` (stereo not drawn) [Compound 18, 1H-Indole-5-sulfonic acid ethylamino-(4-ethyl-4,5-dihydro-pyrazol-1-yl)-methyleneamide], the Ki at 5-HT6 receptor [1] was 3.98 nM.

On to `CCN/C(=N\S(=O)(=O)c1ccc(O)c(Cl)c1)N1CC(CC)C=N1` (stereo not drawn) [Compound 26, 3-Chloro-N-[ethylamino-(4-ethyl-4,5-dihydro-pyrazol-1-yl)-methylene]-4-hydroxy-benzenesulfonamide], for which the Ki at 5-HT6 receptor [1] was 10 nM. With `CCN/C(=N\S(=O)(=O)c1ccc2c(c1)NCC2)N1CC(CC)C=N1` (stereo not drawn) [Compound 33, 2,3-Dihydro-1H-indole-6-sulfonic acid ethylamino-(4-ethyl-4,5-dihydro-pyrazol-1-yl)-methyleneamide], on 5-HT6 receptor [1], the Ki was 501 nM. For the compound `CCN/C(=N\S(=O)(=O)c1ccc(CO)cc1)N1CC2(C=N1)CCCC2` [Compound 40, N-[(2,3-Diaza-spiro[4.4]non-3-en-2-yl)-ethylamino-methylene]-4-hydroxymethyl-benzenesulfonamide], the Ki on 5-HT6 receptor [1] was 631 nM.

Turning to `CCN/C(=N\S(=O)(=O)c1ccc(N)cc1)N1CC2(C=N1)CCNCC2` [Compound 47, 4-Amino-N-[ethylamino-(2,3,8-triaza-spiro[4.5]dec-3-en-2-yl)-methylene]-benzenesulfonamide], the “5-HT6 pA2” value at 5-HT6 receptor [2] amounted to 8.6. On the same count and under the same terms, the figure for `CCN/C(=N\S(=O)(=O)c1ccc2[nH]ccc2c1)N1CC2(C=N1)CCNCC2` [Compound 49] is 8.8. As for `CCN/C(=N\S(=O)(=O)c1ccc(O)cc1)N1CC2(C=N1)CCNCC2` [Compound 50], the Ki at 5-HT6 receptor [1] was 12.6 nM. Take `CCN/C(=N\S(=O)(=O)c1cc(O)cc(Cl)c1)N1CC2(C=N1)CCCCC2` [Compound 55]: on 5-HT6 receptor [2], the Kb is 0.2 nM. `CCN/C(=N\S(=O)(=O)c1ccc2c(c1)CCN2)N1CC(C)(C)C=N1` [Compound 56]: the Ki at 5-HT6 receptor [1] is 15.8 nM. Consider `CCN/C(=N\S(=O)(=O)c1ccc2c(c1)CCN2)N1CC2(C=N1)CCCCC2` [Compound 59], for which the Ki on 5-HT6 receptor [1] was 7.94 nM. Still for that read-out and setting: the figure for `CCN/C(=N\S(=O)(=O)c1ccc2[nH]ccc2c1)N1CC2(C=N1)CCCCC2` [Compound 60] is 3.16 nM.
